According to PMC4422656, “Structural Basis Underlying the Binding Preference of Human Galectins-1, -3 and -7 for Galβ1-3/4GlcNAc” (PLoS ONE, 2015):
Several values for one entry are separate records, joined by “and”; a condition that tells them apart may be missing. Equal entries are not always repeated.

How the values were obtained:
human galectin-7 (hGal7) [1] = target: T1, human galectin-7 (hGal7) (Homo sapiens, UniProt P47929); test: Fluorescence polarization (FP)-based competition binding assay; conditions: for Kd: fluorescence anisotropy at 277 K, competition with LN2-FITC probe, read-out: Dissociation constant Kd (Kd FP)
T1 construct: 7 (residues 1–136); 6xHis (C); made in house; host or cells: Escherichia coli BL21 (DE3)
Protocol: (§1) The measurement of FP-based assay is based on the rotation speed of a fluorophore-containing compound bound to the protein counterpart (e.g. galectins in this study). The fluorophore rotates at a slower rate than when it is unbound, and the resulting fluorescence polarization is higher. In this study we carried out all measurements according to reported procedures. […] All the measurements were conducted in Tris buffer (12.5 mM, pH 7.4) with 200 mM NaCl and 5 mM β-mercaptoethanol at 4 °C. Data plotting, nonlinear regression analysis, and curve construction was done by Prism 5.0 software (GraphPad, San Diego, CA).
(§2) The measured anisotropy value with competitor (Acompetitor) is used to calculate the amount of galectin-bound probe [PG] according to equation:
(§3) [PG]=[(Acompetitor−A0)∕(Amax−A0)]×[P]total.−

human galectin-3 (hGal3) = target: T2, human galectin-3 (hGal3) (Homo sapiens, UniProt P17931); test: as above; conditions: for Kd: fluorescence anisotropy at 277 K, competition with LN2-FITC probe, read-out: Dissociation constant Kd (Kd FP)
T2 construct: the full-length hGal1 (residues 1–135), 3 (residues 1–250); 6xHis (N); made in house; host or cells: Escherichia coli BL21 (DE3)
Protocol: as §1, §2, §3

human galectin-1 (hGal1) [2] = target: T3, human galectin-1 (hGal1) (Homo sapiens, UniProt P09382); test: as above; conditions: for Kd: fluorescence anisotropy at 277 K, competition with LN2-FITC probe, read-out: Dissociation constant Kd (Kd FP)
T3 construct: the full-length hGal1 (residues 1–135); 6xHis (N); made in house; host or cells: Escherichia coli BL21 (DE3)
Protocol: as §1, §2, §3

hGal3-R186A = target: T4, hGal3-R186A (Homo sapiens, UniProt P17931, R186A); test: Biolayer interferometry, LN1/LN2 binding affinity; conditions: hGal3-R186A mutant
T4 construct: the full-length hGal1 (residues 1–135), 3 (residues 1–250); 6xHis (N); made in house; host or cells: Escherichia coli BL21 (DE3)
Excerpt: (§4) Using a standard PCR-based cloning strategy, the coding region of the full-length hGal1 (residues 1–135), 3 (residues 1–250), 7 (residues 1–136) and CRD domain of hGal3 (residues 113–250) were generated and inserted into modified pET-15b (hGal1, hGal3 and hGal3-CRD) or pET-28a (hGal7) vector (Novagen) with in-frame N- and C-terminal 6xHis-tag, respectively. QuikChange mutagenesis method (Agilent Technologies) was applied to replace the corresponding codons of residues Glu165 and Arg186 in full-length hGal3 with Ala codon to allow the expression of mutant proteins hGal3-E165A and hGal3-R186A. All the wild type and mutated proteins were produced in Escherichia coli BL21 (DE3), with 0.5 mM IPTG induction for 16 h at 20 °C. Recombinant proteins were purified by Ni^2+-affinity and size-exclusion chromatography to homogeneity. Purified proteins were then stored in gel-filtration buffer (25 mM Tris-HCl pH8.0, 300 mM NaCl and 5 mM β-mercaptoethanol) and concentrated to ~ 4, 20 and 9 mg/ml as determined by the method of Bradford for both Biolayer interferometry experiments and crystallization trials, respectively.
(§5) Specifically, biotinylated galectins were prepared according to the standard protocol (provided by FortéBio), and adjusted to final concentration of 1 μM in assay buffer condition (50 mM Tris-HCl pH 7.5, 300 mM NaCl and 5 mM β-mercaptoethanol). Biotinylated galectins were then immobilized on Super Streptavidin Biosensors (FortéBio, Inc.), while free streptavidin sites on biosensor were then blocked by incubation with biocytin (10 mg/ml) to avoid non-specific interactions. […] Measurements were followed by 120 sec baseline step, 60 sec association step and 200 sec dissociation step. Baseline and dissociation steps were carried out in assay buffer only. All the data were processed and calculated using Fortebio software and the steady-state K d values were derived from equilibrium responses (S1 Fig) and summarized in Table 1. Two additional parallel Super Streptavidin biosensors were coated with biotinylated galectin and biocytin, separately, and only incubated with assay buffer as double reference controls.

human galectin-7 (hGal7) [3] = target: T1, human galectin-7 (hGal7); test: Biolayer interferometry, LN1/LN2 binding affinity; conditions: for Kd: Biolayer Interferometry at 300 K, steady-state, read-out: Dissociation constant Kd (Kd BI)
Excerpt: as §4, §5

[4] = target: T5, human galectin-3 (hGal3, full-length) (Homo sapiens, UniProt P17931); test: Biolayer interferometry, LN1/LN2 binding affinity; conditions: for Kd: Biolayer Interferometry at 300 K, steady-state, read-out: Dissociation constant Kd (Kd BI)
T5 construct: the full-length hGal1 (residues 1–135), 3 (residues 1–250); 6xHis (N); made in house; host or cells: Escherichia coli BL21 (DE3)
Excerpt: as §4, §5

hGal3-E165A = target: T6, hGal3-E165A (Homo sapiens, UniProt P17931, E165A); test: Biolayer interferometry, LN1/LN2 binding affinity; conditions: for Reduction of binding affinity of hGal3-E165A: hGal3-E165A versus wild-type hGal3, from Table 1 Kd BI; for Kd: Biolayer Interferometry at 300 K, steady-state, read-out: Dissociation constant Kd (Kd BI)
T6 construct: the full-length hGal1 (residues 1–135), 3 (residues 1–250); 6xHis (N); made in house; host or cells: Escherichia coli BL21 (DE3)
Excerpt: as §4, §5

human galectin-1 (hGal1) [5] = target: T3, human galectin-1 (hGal1); test: Biolayer interferometry, LN1/LN2 binding affinity; conditions: for Kd: Biolayer Interferometry at 300 K, steady-state, read-out: Dissociation constant Kd (Kd BI)
Excerpt: as §4, §5

CRD domain of hGal3 = test system: CRD domain of hGal3; design: method as in PMID 12223272; conditions: CRD domain used instead of full-length hGal3; LN1 versus LN2; cited from earlier work
hGal1 [6] = test system: hGal1; design: method as in PMID 12223272; conditions: LN1 versus LN2; cited from earlier work
rat galectin-2 = test system: rat galectin-2; design: method as in PMID 12223272; conditions: cited from earlier work
hGal7 = test system: hGal7; design: method as in PMID 12223272; conditions: cited from earlier work
hGal1 [7] = test system: hGal1; design: method as in PMID 23124203; conditions: in the presence of λ5-UR peptide of pre-BCR; cited from earlier work
hGal1 [8] = test system: hGal1; design: method as in PMID 21949831; conditions: cited from earlier work
hGal3 = test system: hGal3; design: method as in PMID 21949831; conditions: cited from earlier work
[9] = based on Kd FP values, LN1 versus LN2
[10] = based on Kd BI values, LN1 versus LN2

T2 sequence (P17931 whole entry, the tested form may be a part): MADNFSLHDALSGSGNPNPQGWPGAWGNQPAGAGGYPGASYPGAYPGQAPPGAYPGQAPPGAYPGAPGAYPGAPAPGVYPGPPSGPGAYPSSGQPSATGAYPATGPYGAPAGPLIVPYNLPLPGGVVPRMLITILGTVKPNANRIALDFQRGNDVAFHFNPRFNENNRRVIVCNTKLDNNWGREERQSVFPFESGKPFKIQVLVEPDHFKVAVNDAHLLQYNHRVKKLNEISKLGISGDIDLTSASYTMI
T5 sequence (P17931 whole entry, the tested form may be a part): as above
T3 sequence (P09382 whole entry, the tested form may be a part): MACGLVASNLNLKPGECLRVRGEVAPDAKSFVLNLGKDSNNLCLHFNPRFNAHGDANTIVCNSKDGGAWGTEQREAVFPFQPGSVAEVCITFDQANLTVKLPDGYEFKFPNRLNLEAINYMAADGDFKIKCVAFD
T1 sequence (P47929 whole entry, the tested form may be a part): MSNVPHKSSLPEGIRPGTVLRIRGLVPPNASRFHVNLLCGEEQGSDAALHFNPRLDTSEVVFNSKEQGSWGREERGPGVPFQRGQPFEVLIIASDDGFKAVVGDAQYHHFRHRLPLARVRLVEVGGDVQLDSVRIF
T6 sequence (P17931 whole entry E165A, the tested form may be a part): as the sequence (P17931 whole entry, the tested form may be a part) above, with E165A counted along it
T4 sequence (P17931 whole entry R186A, the tested form may be a part): as the sequence (P17931 whole entry, the tested form may be a part) above, with R186A counted along it

| SMILES | Kd (human galectin-7 (hGal7) [1]) | Kd (human galectin-3 (hGal3)) | Kd (human galectin-1 (hGal1) [2]) | Binding ability (hGal3-R186A) | Kd (human galectin-7 (hGal7) [3]) | Kd [4] | Reduction of binding affinity of hGal3-E165A (hGal3-E165A) | Kd (hGal3-E165A; hGal3-E165A) | Kd (human galectin-1 (hGal1) [5]) | further results |
| --- | --- | --- | --- | --- | --- | --- | --- | --- | --- | --- |
| CC(=O)N[C@@H]1[C@@H](O)[C@H](O[C@@H]2O[C@H](CO)[C@H](O)[C@H](O)[C@H]2O)[C@@H](CO)O[C@H]1O [LN2, Galβ1-4GlcNAc] | 19.7 µM | 0.33 µM | 3.59 µM | lose its binding ability | ~410 µM and 410 µM | ~33 µM and 33 µM | 8.5 fold | 280 µM | 150 µM |  |
| CC(=O)NC1C(O)OC(CO)C(O)C1OC1OC(CO)C(O)C(O)C1O (stereo not shown) [LN1, Galβ1-3GlcNAc] | 6.6 µM and 6.63 µM | 1.44 µM | 6.74 µM | lose its binding ability | ~270 µM and 270 µM | ~93 µM and 93 µM | 2.5 fold | 230 µM | ~340 µM and 340 µM | LN1/LN2 ratio (Kd LN1/Kd LN2) (human galectin-7 (hGal7) [1]; [9]): 2.97; LN1/LN2 ratio (Kd LN1/Kd LN2) (human galectin-3 (hGal3); [9]): 0.23; LN1/LN2 ratio (Kd LN1/Kd LN2) (human galectin-1 (hGal1) [2]; [9]): 0.53; LN1/LN2 ratio (Kd LN1/Kd LN2) (human galectin-7 (hGal7) [3]; [10]): 1.52; LN1/LN2 ratio (Kd LN1/Kd LN2) [4, 10]: 0.35; LN1/LN2 ratio (Kd LN1/Kd LN2) (hGal3-E165A; hGal3-E165A, based on Kd BI values, LN1 versus LN2): 1.22 and 1.22 ^2; LN1/LN2 ratio (Kd LN1/Kd LN2) (human galectin-1 (hGal1) [5]; [10]): 0.44; LN1/LN2 ratio, previous study (CRD domain of hGal3): 0.65 ^5; LN1/LN2 ratio, previous study (hGal1 [6]): 0.79; LN1/LN2 binding preference (rat galectin-2): prominent LN1-preferred binding activity; LN1/LN2 ratio, previous study (hGal7; LN1 versus LN2): 2.7; LN1/LN2 binding preference (hGal7): prominent LN1-preferred binding activity |
| CC(=O)N[C@H]1[C@H](O[C@H]2[C@@H](O)[C@@H](CO)O[C@@H](O[C@H]3[C@H](O)[C@@H](O)C(O)O[C@@H]3CO)[C@@H]2O)O[C@H](CO)[C@@H](O[C@@H]2O[C@H](CO)[C@H](O)[C@H](O)[C@H]2O)[C@@H]1O (mixture of isomers) [Lacto-N-neotetraose (LNnT), Lacto-N-neotetraose] |  |  |  |  |  |  |  |  |  | Decrease of hGal1 binding (hGal1 [7]): 3 fold |
| CC(=O)N[C@H]1C(O)O[C@H](CO)[C@H](O)[C@@H]1O[C@@H]1O[C@H](CO)[C@H](O)[C@H](O)[C@H]1O (stereo partly shown) [TF antigen, Galβ1-3GalNAc] |  |  |  |  |  |  |  |  |  | Binding with TF antigen (hGal1 [8]): not; Binding with TF antigen (hGal3): binds |
| CC(=O)N[C@H]1[C@H]([C@H](O)[C@H](O)CO)O[C@@](O[C@H]2[C@@H](O)[C@@H](CO)O[C@@H](O[C@H]3[C@H](O)[C@@H](NC(C)=O)C(O)O[C@@H]3CO)[C@@H]2O)(C(=O)O)C[C@@H]1O (stereo partly drawn) [α3-SiaLacNAc] |  |  |  |  |  |  |  |  |  | Increase of hGal1 binding (hGal1 [7]): 10 fold |
